According to article PMC5359181 (Protein & Cell, 2016):
Like-named read-outs stand apart in the source and are kept apart here.

How the values were obtained:
[1] = biological target: T1, human equilibrative nucleoside transporter 1 (hENT1) (Homo sapiens, UniProt Q99808, N48Q); assay: proteoliposome competition assay with 3H-adenosine, […] reduction at […]; format: biochemical; settings: read-out: % reduction at 500 μmol/L
T1 construct: gene SLC29A1; full-length, residues 1-456
T1 sequence (Q99808 1-456 N48Q): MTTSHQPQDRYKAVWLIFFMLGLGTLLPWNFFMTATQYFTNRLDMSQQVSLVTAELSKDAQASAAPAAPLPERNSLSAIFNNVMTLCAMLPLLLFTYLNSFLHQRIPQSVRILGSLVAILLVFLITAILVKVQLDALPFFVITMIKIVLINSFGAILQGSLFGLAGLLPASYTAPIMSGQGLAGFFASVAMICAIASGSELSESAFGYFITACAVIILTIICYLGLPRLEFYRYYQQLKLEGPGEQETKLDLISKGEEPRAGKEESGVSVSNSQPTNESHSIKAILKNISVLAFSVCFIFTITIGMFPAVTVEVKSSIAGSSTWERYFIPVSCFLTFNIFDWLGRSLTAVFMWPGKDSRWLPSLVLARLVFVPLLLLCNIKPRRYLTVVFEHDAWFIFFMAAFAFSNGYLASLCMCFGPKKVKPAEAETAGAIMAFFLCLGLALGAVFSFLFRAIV

[2] = biological target: T1, human equilibrative nucleoside transporter 1 (hENT1); assay: ITC; format: binding

Row | SMILES | inhibition at 500 µM [1] | further results
1 | Cc1cn([C@@H]2O[C@H](CO)[C@@H](O)[C@H]2O)c(=O)[nH]c1=O [5-methyluridine] | > 90% | –
2 | Nc1ncnc2nc[nH]c12 [adenine] | – | Kd [2]: 5000 ± 500 µM
3 | Nc1ncnc2c1ncn2[C@H]1C[C@H](O)[C@@H](CO)O1 [deoxyadenosine] | – | Kd ([2]; read-out: Kd): 190 ± 40 µM
4 | Nc1nc2c(ncn2[C@H]2C[C@H](O)[C@@H](CO)O2)c(=O)[nH]1 [deoxyguanosine] | > 90% | –
5 | O=c1ccn([C@H]2C[C@H](O)[C@@H](CO)O2)c(=O)[nH]1 [deoxyuridine] | > 90% | –
6 | Cc1cn([C@H]2C[C@H](O)[C@@H](CO)O2)c(=O)[nH]c1=O [thymidine] | > 90% | –
7 | O=c1ccn([C@@H]2O[C@H](CO)[C@@H](O)[C@H]2O)c(=O)[nH]1 [uridine] | > 90% | –
